# In patent publication US20080200454A1, “CARBON-LINKED TETRAHYDRO-PYRAZOLO-PYRIDINE MODULATORS OF CATHEPSIN S” (priority 2007, published 2008):
# Target: Recombinant human cathepsin S (CatS) (Homo sapiens, UniProt P25774)
# Experiment: Recombinant human cathepsin S (CatS) inhibition assay, fluorogenic substrate Z-Valine-Valine-Arginine-AMC;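 further: Baculovirus-expressed CatS in pH 5.0 sodium acetate buffer with DTT and NaCl, fluorescence read each minute over 20 min, inhibition derived from rate slope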
# Settings: not given
# Recombinant human cathepsin S (CatS), sequence (P25774 115-331): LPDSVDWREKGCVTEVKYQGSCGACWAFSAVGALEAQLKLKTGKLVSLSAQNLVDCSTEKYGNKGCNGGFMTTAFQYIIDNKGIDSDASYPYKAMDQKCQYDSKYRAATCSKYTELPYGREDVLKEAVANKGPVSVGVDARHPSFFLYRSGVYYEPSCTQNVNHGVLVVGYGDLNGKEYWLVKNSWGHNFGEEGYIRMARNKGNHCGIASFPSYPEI
row,SMILES,IC50 [µM]
1,"CS(=O)(=O)N1CCc2c(c(-c3ccc(Cl)c(CCc4ccc(F)cc4F)c3)nn2CCCN2CCOCC2)C1 [Example 59, 3-{4-Chloro-3-[2-(2,4-difluoro-phenyl)-ethyl]-phenyl}-5-methanesulfonyl-1-(3-morpholin-4-yl-propyl)-4,5,6,7-tetrahydro-1H-pyrazolo[4,3-c]pyridine]",0.66
2,"CS(=O)(=O)N1CCc2c(c(-c3ccc(Cl)c(C#Cc4cccc(CC#N)c4)c3)nn2CCCN2CCOCC2)C1 [Example 4, (3-{2-Chloro-5-[5-methanesulfonyl-1-(3-morpholin-4-yl-propyl)-4,5,6,7-tetrahydro-1H-pyrazolo[4,3-c]pyridin-3-yl]-phenylethynyl}-phenyl)-acetonitrile]",0.75
3,"CS(=O)(=O)N1CCc2c(c(-c3ccc(Cl)c(C#Cc4ccc(CNCc5ccc(Cl)cc5)cc4)c3)nn2CC(O)CN2CCOCC2)C1 (centres unmarked) [Example 332, 1-[3-(4-Chloro-3-{[4-({[(4-chlorophenyl)methyl]amino}methyl)phenyl]ethynyl}phenyl)-5-(methylsulfonyl)-4,5,6,7-tetrahydro-1H-pyrazolo[4,3-c]pyridin-1-yl]-3-morpholin-4-ylpropan-2-ol]",0.19
4,"CS(=O)(=O)N1CCc2c(c(-c3ccc(Cl)c(CCc4ccc5c(c4)CNCC5)c3)nn2CCCN2CCCCC2)C1 [Example 228, 7-(2-{2-Chloro-5-[5-(methylsulfonyl)-1-(3-piperidin-1-ylpropyl)-4,5,6,7-tetrahydro-1H-pyrazolo[4,3-c]pyridin-3-yl]phenyl}ethyl)-1,2,3,4-tetrahydroisoquinoline]",0.09
5,"COC(=O)C1NCCc2cc(C#Cc3cc(-c4nn(CCCN5CCOCC5)c5c4CN(S(C)(=O)=O)CC5)ccc3Cl)ccc21 (centres unmarked) [Example 208, Methyl 6-({2-chloro-5-[5-(methylsulfonyl)-1-(3-morpholin-4-ylpropyl)-4,5,6,7-tetrahydro-1H-pyrazolo[4,3-c]pyridin-3-yl]phenyl}ethynyl)-1,2,3,4-tetrahydroisoquinoline-1-carboxylate]",3.13
6,"NC(=O)C(=O)N1CCc2c(c(-c3ccc(Cl)c(C#Cc4ccc(Cl)c(C(=O)NCC5CCCNC5)c4)c3)nn2CCCN2CCSCC2)C1 (centres unmarked) [Example 579, 5-[(5-{5-[Amino(oxo)acetyl]-1-(3-thiomorpholin-4-ylpropyl)-4,5,6,7-tetrahydro-1H-pyrazolo[4,3-c]pyridin-3-yl}-2-chlorophenyl)ethynyl]-2-chloro-N-(piperidin-3-ylmethyl)benzamide]",0.02
7,"NC(=O)C(=O)N1CCc2c(c(-c3ccc(Cl)c(C#Cc4ccc(Cl)c(C(=O)NC[C@@H]5CCNC5)c4)c3)nn2CCCN2CCSCC2)C1 [Example 578, 5-[(5-{5-[Amino(oxo)acetyl]-1-(3-thiomorpholin-4-ylpropyl)-4,5,6,7-tetrahydro-1H-pyrazolo[4,3-c]pyridin-3-yl}-2-chlorophenyl)ethynyl]-2-chloro-N-[(3R)-pyrrolidin-3-ylmethyl]benzamide]",0.02
8,"CS(=O)(=O)N1CCc2c(c(-c3ccc(Cl)c(C#Cc4ccc5[nH]ccc5c4)c3)nn2CCCN2CCOCC2)C1 [Example 1, 3-[4-Chloro-3-(1H-indol-5-ylethynyl)-phenyl]-5-methanesulfonyl-1-(3-morpholin-4-yl-propyl)-4,5,6,7-tetrahydro-1H-pyrazolo[4,3-c]pyridine]",0.19
9,"CS(=O)(=O)N1CCc2c(c(-c3ccc(Cl)c(C#Cc4ccc(CNCc5ccc(Cl)cc5)cc4)c3)nn2CCCN2CCOCC2CO)C1 (centres unmarked) [Example 419, (4-{3-[3-(4-Chloro-3-{[4-({[(4-chlorophenyl)methyl]amino}methyl)phenyl]ethynyl}phenyl)-5-(methylsulfonyl)-4,5,6,7-tetrahydro-1H-pyrazolo[4,3-c]pyridin-1-yl]propyl}morpholin-3-yl)methanol]",0.18
10,"CS(=O)(=O)N1CCc2c(c(-c3ccc(Cl)c(C#Cc4ccc5c(c4)CNCC5)c3)nn2CC(O)CN2CCCCC2)C1 (centres unmarked) [Example 134, 1-{3-[4-Chloro-3-(1,2,3,4-tetrahydro-isoquinolin-7-ylethynyl)-phenyl]-5-methanesulfonyl-4,5,6,7-tetrahydro-pyrazolo[4,3-c]pyridin-1-yl}-3-piperidin-1-yl-propan-2-ol]",0.18

# Same assay, conditions: CatS IC50
row,SMILES,IC50 [µM]
1,"CC(=O)OCC(=O)N1CCc2c(c(-c3ccc(Cl)c(C#Cc4ccc(Cl)cc4)c3)nn2CCCN2CCOCC2)C1 [Example 142, Acetic acid 2-[3-[4-chloro-3-(4-chloro-phenylethynyl)-phenyl]-1-(3-morpholin-4-yl-propyl)-1,4,6,7-tetrahydro-pyrazolo[4,3-c]pyridin-5-yl]-2-oxo-ethyl ester]",0.28
2,"CS(=O)(=O)N1CCc2c(c(-c3ccc(Cl)c(C#Cc4cccc(CNCc5ccccn5)c4)c3)nn2CCCN2CCOCC2)C1 [Example 187, 1-[3-({2-Chloro-5-[5-(methylsulfonyl)-1-(3-morpholin-4-ylpropyl)-4,5,6,7-tetrahydro-1H-pyrazolo[4,3-c]pyridin-3-yl]phenyl}ethynyl)phenyl]-N-(pyridin-2-ylmethyl)methanamine]",0.15
3,"Cc1ccccc1CNCc1ccc(C#Cc2cc(-c3nn(CCCN4CCSCC4)c4c3CN(C(N)=O)CC4)ccc2Cl)cc1 [Example 532, 3-(4-Chloro-3-{[4-({[(2-methylphenyl)methyl]amino}methyl)phenyl]ethynyl}phenyl)-1-(3-thiomorpholin-4-ylpropyl)-1,4,6,7-tetrahydro-5H-pyrazolo[4,3-c]pyridine-5-carboxamide]",0.09
4,"CS(=O)(=O)N1CCc2c(c(-c3ccc(Cl)c(C#Cc4ccc(CNCc5ccc(Cl)cc5)cc4)c3)nn2CCCN2C[C@H]3C[C@@H]2CN3)C1 [Example 494, 1-[4-({2-Chloro-5-[1-{3-[(1R,4R)-2,5-diazabicyclo[2.2.1]hept-2-yl]propyl}-5-(methylsulfonyl)-4,5,6,7-tetrahydro-1H-pyrazolo[4,3-c]pyridin-3-yl]phenyl}ethynyl)phenyl]-N-[(4-chlorophenyl)methyl]methanamine]",0.31
5,"CS(=O)(=O)N1CCc2c(c(-c3ccc(Cl)c(C#Cc4ccc(CNCc5ccc(Cl)cc5)cc4)c3)nn2CCCN2CCCOCC2)C1 [Example 399, 1-{4-[(2-Chloro-5-{5-(methylsulfonyl)-1-[3-(1,4-oxazepan-4-yl)propyl]-4,5,6,7-tetrahydro-1H-pyrazolo[4,3-c]pyridin-3-yl}phenyl)ethynyl]phenyl}-N-[(4-chlorophenyl)methyl]methanamine]",0.11
6,"NC(=O)N1CCc2c(c(-c3ccc(Cl)c(C#Cc4ccc(C(=O)NCCN5CCOCC5)cc4)c3)nn2CCCN2CCSCC2)C1 [Example 607, 3-[4-Chloro-3-({4-[(2-morpholin-4-ylethyl)carbamoyl]phenyl}ethynyl)phenyl]-1-(3-thiomorpholin-4-ylpropyl)-1,4,6,7-tetrahydro-5H-pyrazolo[4,3-c]pyridine-5-carboxamide]",0.05

# Same assay, conditions: CatS IC50, Table 2; average of results obtained
row,SMILES,IC50 [µM]
1,"Cc1ccccc1C#Cc1cc(-c2nn(CCCN3CCOCC3)c3c2CN(S(C)(=O)=O)CC3)ccc1Cl [Example 35, 3-(4-Chloro-3-o-tolylethynyl-phenyl)-5-methanesulfonyl-1-(3-morpholin-4-yl-propyl)-4,5,6,7-tetrahydro-1H-pyrazolo[4,3-c]pyridine]",1.05
